The source of these data is patent US20230090223A1, “NANOPARTICLES FOR USE IN THE TREATMENT AND DIAGNOSIS OF CNS DISORDERS” (priority 2020, published 2023).

This series in a line: Relaxivity measurement, 1.0 T MRI scanner. Format: physicochemical. Particulars: room temperature. Here is the method:
A relaxivity study was performed by evaluating the longitudinal relaxation time T1 of HP—Au—Gd nanoparticles at different Gd concentrations at room temperature by using a 1.0 T-MRI scanner (ICON, Bruker Biospin, Ettlingen, Germany). The commercially available gadolinium contrast agent (Gadopentetic acid or Gd-DTPA) was used as the positive control. The contrast agents were initially placed into syringes and set in the center of the volume coil. The sample temperature was maintained at room temperature. By using the MRI scanner, horizontal single-slice T1-weighted MR images were acquired (spin echo, TR/TE=400/10 ms, slice thickness=2.0 mm, matrix=256×256, field of view (FOV)=38.4×38.4 mm, number of averages (NA)=10, number of slices=1). Horizontal single-slice inversion-recovery MRI was done to calculate the T1 and r1 by using rapid acquisition with relaxation enhancement (RARE) acquisition (TR=20,000 ms, TE=17 ms, inversion time=45, 100, 200, 400, 800, 1600, 3200, 6400, 8000, 10000, 12000 ms, matrix size=64×64, FOV=38.4×38.4 mm, slice thickness=2.0 mm, RARE factor=4, and NA=1). Then, the r1 relaxivities were calculated by using the following equation: r1=(1/T1-1/T1(0))/[Gd] where [Gd] is the concentration of Gd, and 1/T1(0) and 1/T1 are the longitudinal relaxation rate without and with paramagnetic species, respectively.

Take `CNC[C@H](O)[C@@H](O)[C@H](O)[C@H](O)CO.CNC[C@H](O)[C@@H](O)[C@H](O)[C@H](O)CO.O=C([O-])CN(CCN(CC(=O)[O-])CC(=O)O)CCN(CC(=O)[O-])CC(=O)O.[Gd+3]` [Gd-DTPA, Gadopentetic acid]: the r1 relaxivity came to 3.26 mM⁻¹ s⁻¹.
